Measurements: US20080020421A1, “METHODS OF SCREENING AGENTS FOR CYTOTOXIC AND ANTIMICROBIAL ACTIVITY” (priority 2006, published 2008)

Experiments:
[1] = test system: M. avium-GFP (strain MAC104); assay: Toxicity assay with GFP-expressing M. avium; conditions: 20 μg/ml, 18 h incubation, relative to untreated bacteria
Method: (§1) E. coli-GFP cells were grown in LB broth media while the MAC104 M. avium strain was grown in 7H9-ADC media.
(§2) Toxicity assays with GFP-expressing bacteria. E. coli was transformed with a GFP-expression plasmid that also confers tetracycline resistance was kindly provided by Dr. David Schneider (Elrod-Erickson et al., 2000). […] Both bacterial strains were grown and selected based on antibiotic resistance and GFP expression. All toxicity assays were performed using the plates and fluorometric parameters described in the previous section. Bacterial cell suspensions were seeded in a final volume of 100 μl at an optical density of 0.05 and 0.25 at 650 nm, for E. coli-GFP and M. avium-GFP, respectively. After exposure to the test compounds, assay plates were incubated at 37° C. in a humid environment to prevent dehydration in the wells. Unlike the HeLa-GFP assays, reading were performed without removing the supernatants to avoid loss of cells. Several untreated wells containing bacteria and media were used to determine the maximum level of fluorescence. Several wells containing media alone (no bacteria) were included in each assay to remove background fluorescence.
(§3) Data analysis. All compounds, including controls, were screened in triplicate. The average of the three wells that were used for the removal of the background fluorescence (wells containing water for the HeLa-GFP assays and wells containing media alone for bacteria) was subtracted from each individual well. The mean of these triplicate values for each compound was then obtained.

E. coli-GFP = assay: Toxicity assay with GFP-expressing E. coli; conditions: 20 μg/ml, 10 h incubation, relative to untreated bacteria
Method: as §1, §2, §3

HeLa-GFP cells = assay: HeLa-GFP fluorometric cytotoxicity assay; conditions: 18 h incubation, relative to untreated (DMSO) cells
Method: Cell culture. HeLa-GFP cells were cultured in DMEM media supplemented with 10% heat-inactivated newborn calf serum as previously described (Montoya et al., 2004). Stock cultures were prewashed twice with PBS before the treatment of trypsin for cell resuspension and subsequently re-plated at the concentration of 4,000 cells/well.
HeLa-GFP fluorometric cytotoxicity assay. All cell lines were seeded in clear-bottomed 96-well assay plates (3603, Costar, Corning Inc., Corning, N.Y.) in order to minimized background fluorescence. HeLa cells were grown in a total volume of 0.2 ml of medium and incubated overnight for proper cell attachment. The quinone compounds were then added to each well (in triplicate) and then incubated for a period of 18 hr. For the determination of fluorescence, the assay plates were then read using the Fluoroskan Ascent F1 fluorometer (Thermo Electron Corp.) set at the excitation and emission parameters of 485 and 518 nm, respectively. Since the HeLa-GFP cell line is adherent, the fluorometer was set to read from the bottom of the plate for closer proximity to the cells. Before the readings were performed, all supernatant media was removed to avoid any background interference and thus enhancing the sensitivity of the optical readings. For calibration purposes, three untreated control wells were used to determine the maximum level of fluorescence (100%). […] As a cytolysis control (complete loss of fluorescence), three wells containing cells were exposed to 0.2 ml of deionized water. These controls were then used to calculate the percent loss of GFP signal after compound exposure as determined by comparison with control wells containing cells that were not exposed to the chemical agent (see data analysis below).
Data analysis. All compounds, including controls, were screened in triplicate. The average of the three wells that were used for the removal of the background fluorescence (wells containing water for the HeLa-GFP assays and wells containing media alone for bacteria) was subtracted from each individual well. The mean of these triplicate values for each compound was then obtained. These mean values were then divided by the average obtained for maximum fluorescence (cells not treated with compound) and then multiplied by 100 to obtain the percentage values as shown in Table 1.

| SMILES | Percent-GFP-fluorescence after incubation with test compounds, M. avium-GFP (20 μg/ml) [1] [%] | Percent-GFP-fluorescence after incubation with test compounds, E. coli-GFP (20 μg/ml) (E. coli-GFP) [%] | Percent-GFP-fluorescence after incubation with test compounds, HeLa-GFP (2 μg/ml) (HeLa-GFP cells) [%] | Percent-GFP-fluorescence after incubation with test compounds, HeLa-GFP (20 μg/ml) (HeLa-GFP cells) [%] |
| --- | --- | --- | --- | --- |
| CC12OC1(c1ccccc1)C(=O)c1ccccc1C2=O (stereo not drawn) [Compound Q21] | 57.0 | 122.0 | 57.0 | 23.0 |
| CCOC(=O)c1cccc(C2=C(CN(C(=O)OC(C)(C)C)C(=O)OC(C)(C)C)C(=O)c3ccccc3C2=O)c1 [Compound Q37] | 92.0 | 105.0 | 90.0 | 62.0 |
| CCCCCCCC1=CC(=O)c2c(OC)cccc2C1=O [Compound Q18] | 127.0 | 112.0 | 88.0 | 22.0 |
| CCCCCCC1=CC(=O)c2ccccc2C1=O [Compound Q11] | 69.0 | 98.0 | 84.0 | 14.0 |
| CCCC12OC1(CC)C(=O)c1ccccc1C2=O (stereo not drawn) [Compound Q27] | 133.0 | 117.0 | 21.0 | 21.0 |
| CCOC(=O)C1=C(CC)C(=O)c2ccccc2C1=O [Compound Q15] | 40.0 | 80.0 | 85.0 | 53.0 |
| CCCCCCC1=CC(=O)c2c(OC)cccc2C1=O [Compound Q17] | 100.0 | 115.0 | 80.0 | 18.0 |
| CCCC12OC1(CCC)C(=O)c1ccccc1C2=O (stereo not drawn) [Compound Q26] | 97.0 | 110.0 | 26.0 | 27.0 |
| CCCCCC1=C(C)C(=O)c2ccccc2C1=O [Compound Q9] | 85.0 | 115.0 | 90.0 | 31.0 |
| CCOC(=O)C12OC1(CC)C(=O)c1ccccc1C2=O (stereo not drawn) [Compound Q28] | 97.0 | 115.0 | 17.0 | 4.0 |
| CCCC1=CC(=O)c2c(OC)cccc2C1=O [Compound Q16] | 105.0 | 127.0 | 78.0 | 10.0 |
| O=C1c2ccccc2C(=O)C2(c3ccccc3)OC12c1ccccc1 (stereo not drawn) [Compound Q20] | 77.0 | 86.0 | 28.0 | 29.0 |
| CCCCCCCC1=CC(=O)c2ccccc2C1=O [Compound Q12] | 66.0 | 82.0 | 81.0 | 14.0 |
| COC(=O)c1ccccc1C1=C(CNC(=O)OC(C)(C)C)C(=O)c2ccccc2C1=O [Compound Q32] | 80.0 | 99.0 | 88.0 | 57.0 |
| COc1ccc(CC(=O)n2nnc(C3=C(CO)C(=O)c4ccccc4C3=O)c2CO)cc1 [Compound Q30] | 96.0 | 105.0 | 84.0 | 47.0 |
| CCCC1=C(CC)C(=O)c2ccccc2C1=O [Compound Q13] | 72.0 | 93.0 | 89.0 | 21.0 |
| COC(=O)c1ccccc1C1=C(CN(C(=O)OC(C)(C)C)C(=O)OC(C)(C)C)C(=O)c2ccccc2C1=O [Compound Q33] | 74.0 | 102.0 | 88.0 | 62.0 |
| O=C1C(c2ccccc2)=C(c2ccccc2)C(=O)c2ccccc21 [Compound Q6] | 55.0 | 105.0 | 78.0 | 20.0 |
| CC(C)=CCC1=C(O)C(=O)c2ccccc2C1=O [Compound Q4, lapachol, reference compound] | 26.0 | 56.0 | 70.0 | 3.0 |
| CCOC(=O)c1ccccc1C1=C(CNC(=O)OC(C)(C)C)C(=O)c2ccccc2C1=O [Compound Q34] | 64.0 | 87.0 | 86.0 | 49.0 |
| O=C1C=CC(=O)c2c(O)cccc21 [Compound Q2] | 72.0 | 111.0 | 14.0 | 29.0 |
| O=C1C=C(c2ccccc2)C(=O)c2ccccc21 [Compound Q7] | 35.0 | 89.0 | 13.0 | 25.0 |
| CCCC1=C(CCC)C(=O)c2c(OC)cccc2C1=O [Compound Q19] | 73.0 | 99.0 | 78.0 | 38.0 |
| CCCCC12OC1C(=O)c1ccccc1C2=O (stereo not drawn) [Compound Q24] | 202.0 | 87.0 | 5.0 | 23.0 |
| CCCC1=C(CCC)C(=O)c2ccccc2C1=O [Compound Q8] | 102.0 | 134.0 | 89.0 | 16.0 |
| C[Si](C)(C)n1nnc(C2=C(CO)C(=O)c3ccccc3C2=O)c1CO [Compound Q31] | 94.0 | 107.0 | 88.0 | 82.0 |
| CCOC(=O)c1ccc(C2=C(CN(C(=O)OC(C)(C)C)C(=O)OC(C)(C)C)C(=O)c3ccccc3C2=O)cc1 [Compound Q39] | 96.0 | 108.0 | 88.0 | 62.0 |
| CCCCC12OC1(c1ccccc1)C(=O)c1ccccc1C2=O (stereo not drawn) [Compound Q22] | 91.0 | 110.0 | 75.0 | 14.0 |
| O=C1C=C(CCCO)C(=O)c2ccccc21 [Compound Q14] | 58.0 | 90.0 | 83.0 | 29.0 |
| CCOC(=O)c1cccc(C2=C(CNC(=O)OC(C)(C)C)C(=O)c3ccccc3C2=O)c1 [Compound Q36] | 93.0 | 100.0 | 89.0 | 59.0 |
